Data reported in patent publication US11518758B2, “Heteroarylaminopyrimidine amide autophagy inhibitors and methods of use thereof” (Deciphera Pharmaceuticals, LLC, priority 2019, dated 2022).

Columns and labels:
ULK1 kinase [1] = target: T1, ULK1 kinase (Homo sapiens, UniProt O75385, E37A/K38A); assay: Biochemical assay for ULK1.3 (coupled pyruvate kinase/lactate dehydrogenase assay); conditions: 0.1 nM ULK1 (from Beryllium), peptide substrate, 1 mM ATP
T1 construct: (residues 1-283; ID NO: 2); purchased Beryllium
T1 sequence (O75385 1-283 E37A/K38A): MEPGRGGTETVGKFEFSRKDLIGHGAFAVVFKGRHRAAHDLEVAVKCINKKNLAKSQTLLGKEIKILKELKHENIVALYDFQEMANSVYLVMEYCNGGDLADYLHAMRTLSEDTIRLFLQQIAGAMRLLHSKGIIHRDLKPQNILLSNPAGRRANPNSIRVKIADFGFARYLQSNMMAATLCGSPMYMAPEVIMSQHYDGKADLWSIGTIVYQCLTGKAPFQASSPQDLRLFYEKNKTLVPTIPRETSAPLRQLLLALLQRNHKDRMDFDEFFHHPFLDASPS
Experimental: Example 175. Biochemical Assay for ULK1.3
Activity of ULK1 kinase was determined spectroscopically using a coupled pyruvate kinase/lactate dehydrogenase assay that continuously monitors the ATP hydrolysis-dependent oxidation of NADH (e.g., Schindler et al. Science (2000) 289: 1938-1942). Assays were conducted in 384-well plates (100 uL final volume) using 0.1 nM ULK1 (from Beryllium), 0.075 mM peptide substrate (YANWLAASIYLDGKKK (SEQ ID NO: 5)), 1.5 units pyruvate kinase, 2.1 units lactate dehydrogenase, 1 mM phosphoenol pyruvate, 0.28 mM NADH and 1 mM ATP in assay buffer (100 mM Tris, pH 7.5, 15 mM MgCl2, 0.5 mM DTT, 0.004% (w/v) BSA, and 0.004% Triton X-100). Inhibition of ULK1 was measured by adding serial diluted test compound (final assay concentration of 1% DMSO). A decrease in absorption at 340 nm was monitored continuously for 6 hours at 30° C. on a multi-mode microplate reader (BioTek). The reaction rate was calculated using the 2-3 h time frame. The reaction rate at each concentration of compound was converted to percent inhibition using controls (i.e. reaction with no test compound and reaction with a known inhibitor) and IC50 values were calculated using software routines in Prism (GraphPad software).

LRRK2 kinase = target: T2, LRRK2 kinase (Homo sapiens, UniProt Q5S007); assay: Biochemical assay for LRRK2 (coupled pyruvate kinase/lactate dehydrogenase assay); conditions: 26.4 nM LRRK2 (residues 970-2528), 0.1 mM peptide substrate, 1 mM ATP
T2 construct: purchased Thermo Fisher
Experimental: Example 182. Biochemical Assay for LRRK2 (SEQ. ID NO. 4)
Activity of LRRK2 kinase was determined spectroscopically using a coupled pyruvate kinase/lactate dehydrogenase assay that continuously monitors the ATP hydrolysis-dependent oxidation of NADH (e.g., Schindler et al. Science (2000) 289: 1938-1942). Assays were conducted in 384-well plates (100 uL final volume) using 26.4 nM LRRK2 (Thermo Fisher), 0.1 mM peptide substrate (RLGRDKYKTLRQIRQ (SEQ ID NO: 6)), 1.5 units pyruvate kinase, 2.1 units lactate dehydrogenase, 1 mM phosphoenol pyruvate, 0.28 mM NADH and 1 mM ATP in assay buffer (100 mM Tris, pH 7.5, 15 mM MgCl2, 0.5 mM DTT, 0.004% (w/v) BSA, and 0.004% Triton X-100). Inhibition of LRRK2 was measured by adding serial diluted test compound (final assay concentration of 1% DMSO). A decrease in absorption at 340 nm was monitored continuously for 6 hours at 30° C. on a multi-mode microplate reader (BioTek). The reaction rate was calculated using the 2-3 h time frame. The reaction rate at each concentration of compound was converted to percent inhibition using controls (i.e. reaction with no test compound and reaction with a known inhibitor) and IC50 values were calculated using software routines in Prism (GraphPad software).

ULK1 kinase [2] = target: T3, ULK1 kinase (Homo sapiens, UniProt O75385); assay: Biochemical assay for ULK1.2 (coupled pyruvate kinase/lactate dehydrogenase assay); conditions: 19 nM ULK1 (Eurofins), myelin basic protein, 1 mM ATP
T3 construct: purchased Eurofins 14-959
T3 sequence (O75385 with tags, fused parts or gaps): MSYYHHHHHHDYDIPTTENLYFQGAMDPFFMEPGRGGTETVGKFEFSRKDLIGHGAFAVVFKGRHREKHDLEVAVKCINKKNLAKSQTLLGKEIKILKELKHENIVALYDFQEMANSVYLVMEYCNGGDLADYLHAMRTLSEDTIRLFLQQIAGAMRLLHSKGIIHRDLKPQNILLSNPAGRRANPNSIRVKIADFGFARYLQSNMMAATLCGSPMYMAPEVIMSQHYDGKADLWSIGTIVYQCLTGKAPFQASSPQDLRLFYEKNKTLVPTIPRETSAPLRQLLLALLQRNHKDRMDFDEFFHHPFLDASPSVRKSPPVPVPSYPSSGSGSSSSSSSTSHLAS
Outline: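 NADH-coupled PK/LDH read-out at 340 nm, run with 19 nM ULK1, 0.25 mg/mL myelin basic protein and 1 mM ATP. Buffer was 100 mM Tris pH 7.5 with 15 mM MgCl2 and 1% DMSO final. Monitoring was continuous for 6 hours at 30° C; rates from the 2-3 h window were converted to percent inhibition and fitted to a four-parameter curve for IC50.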

[3] = system: phospho-Serine 318 ATG13 (pATG13) in MiaPaCa-2 cells; assay: pATG13 levels of mutant KRas MiaPaCa-2 cells after treatment with ULK inhibitors in combination with trametinib (ELISA); assay type: cell-based, human
Experimental: Example 178. pATG13 Levels of Mutant KRas MiaPaCa-2 Cells after Treatment with ULK Inhibitors in Combination with Trametinib
MiaPaCa-2 human pancreatic cancer cells (10000 cells/well) were added to a 384-well tissue-culture treated plate in 50 μL of pre-warmed DMEM medium supplemented with 10% characterized fetal bovine serum (Invitrogen, Carlsbad, Calif.), 100 units/mL penicillin G, 100 μg/mL streptomycin, and 2.5% Horse Serum and allowed to grow overnight at 37° C., 5% CO2, and 95% humidity. The following day, 10 μL of media containing trametinib or DMSO as a control was added to wells. The final concentration of trametinib in wells was 250 nM. A dose response of a test compound (0.6 μL per well) was added. DMSO (0.6 μL) was added to control wells. The plate was briefly shaken to mix wells and then incubated at 37° C. overnight. The next day, the media was aspirated and cells were washed with Dulbecco's Phosphate Buffered Saline (Gibco). Cells were lysed using MPER lysis buffer (Pierce, Rockford, Ill.) containing Halt Phosphatase and Protease Inhibitors (Pierce, Rockford, Ill.) and Phosphatase inhibitor cocktail 2 (Sigma, St. Louis, Mo.) at 4° C. for 10 minutes with shaking.
Cellular levels of phospho-Serine 318 ATG13 (pATG13) were measured via an ELISA method. Total ATG13 Antibody (Cell Signaling Cat #13273) was used to coat the wells. The plate was incubated at 4° C. overnight and washed with ELISA wash buffer (Biolegend Cat #421601). The wells were then blocked with assay diluent (Biolegend Cat #421203) for 1 hour at room temperature. Plate wells were washed with ELISA wash buffer. Cell lysate was added to wells and incubated at room temperature for 2 hours. Plate wells were washed with ELISA wash buffer. Biotinylated pS318-ATG13 antibody (Rockland Immunochemicals Cat #600-401-C49) was diluted in assay diluent and added to each well and incubated at room temperature for 1 hour. Plate wells were washed with ELISA wash buffer. Streptavidin linked to horseradish peroxidase (Thermo Fisher Cat #21140) was diluted in assay diluent and added to each well and incubated at room temperature for 1 hour. Plate wells were washed with ELISA wash buffer. High sensitivity TMB substrate (Biolegend Cat #421101) was added to each well and incubated at room temperature for 20 minutes. The reaction was stopped with 2N Sulfuric Acid. The plate was analyzed at on a plate reader measuring absorbance at 450 nm and 540 nm (background). Signal was calculated by first subtracting the background absorbance at 540 nm from the absorbance at 450 nm for each well. Next, the background corrected absorbance at 450 nm from blank wells was subtracted from test wells. Data was compared to control wells to determine % ATG13 phosphorylation. GraphPad Prism was used to calculate IC50 values.

[4] = system: phospho-Serine 318 ATG13 (pATG13), ULK kinase substrate, in A549 (KRAS mutant) cells; assay: pATG13 levels of mutant KRas A549 cells after treatment with ULK inhibitors in combination with trametinib (ELISA); assay type: cell-based, human; conditions: with 250 nM trametinib
Outline: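 A549 cells grown overnight were treated overnight at 37 °C with a dose response of test compound plus 250 nM trametinib (final) or DMSO. Lysates were assayed by sandwich ELISA, with total ATG13 capture and biotinylated pS318-ATG13 detection read at 450 nm minus 540 nm, giving % phosphorylation against control and IC50.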

T2 sequence (Q5S007 with tags, fused parts or gaps): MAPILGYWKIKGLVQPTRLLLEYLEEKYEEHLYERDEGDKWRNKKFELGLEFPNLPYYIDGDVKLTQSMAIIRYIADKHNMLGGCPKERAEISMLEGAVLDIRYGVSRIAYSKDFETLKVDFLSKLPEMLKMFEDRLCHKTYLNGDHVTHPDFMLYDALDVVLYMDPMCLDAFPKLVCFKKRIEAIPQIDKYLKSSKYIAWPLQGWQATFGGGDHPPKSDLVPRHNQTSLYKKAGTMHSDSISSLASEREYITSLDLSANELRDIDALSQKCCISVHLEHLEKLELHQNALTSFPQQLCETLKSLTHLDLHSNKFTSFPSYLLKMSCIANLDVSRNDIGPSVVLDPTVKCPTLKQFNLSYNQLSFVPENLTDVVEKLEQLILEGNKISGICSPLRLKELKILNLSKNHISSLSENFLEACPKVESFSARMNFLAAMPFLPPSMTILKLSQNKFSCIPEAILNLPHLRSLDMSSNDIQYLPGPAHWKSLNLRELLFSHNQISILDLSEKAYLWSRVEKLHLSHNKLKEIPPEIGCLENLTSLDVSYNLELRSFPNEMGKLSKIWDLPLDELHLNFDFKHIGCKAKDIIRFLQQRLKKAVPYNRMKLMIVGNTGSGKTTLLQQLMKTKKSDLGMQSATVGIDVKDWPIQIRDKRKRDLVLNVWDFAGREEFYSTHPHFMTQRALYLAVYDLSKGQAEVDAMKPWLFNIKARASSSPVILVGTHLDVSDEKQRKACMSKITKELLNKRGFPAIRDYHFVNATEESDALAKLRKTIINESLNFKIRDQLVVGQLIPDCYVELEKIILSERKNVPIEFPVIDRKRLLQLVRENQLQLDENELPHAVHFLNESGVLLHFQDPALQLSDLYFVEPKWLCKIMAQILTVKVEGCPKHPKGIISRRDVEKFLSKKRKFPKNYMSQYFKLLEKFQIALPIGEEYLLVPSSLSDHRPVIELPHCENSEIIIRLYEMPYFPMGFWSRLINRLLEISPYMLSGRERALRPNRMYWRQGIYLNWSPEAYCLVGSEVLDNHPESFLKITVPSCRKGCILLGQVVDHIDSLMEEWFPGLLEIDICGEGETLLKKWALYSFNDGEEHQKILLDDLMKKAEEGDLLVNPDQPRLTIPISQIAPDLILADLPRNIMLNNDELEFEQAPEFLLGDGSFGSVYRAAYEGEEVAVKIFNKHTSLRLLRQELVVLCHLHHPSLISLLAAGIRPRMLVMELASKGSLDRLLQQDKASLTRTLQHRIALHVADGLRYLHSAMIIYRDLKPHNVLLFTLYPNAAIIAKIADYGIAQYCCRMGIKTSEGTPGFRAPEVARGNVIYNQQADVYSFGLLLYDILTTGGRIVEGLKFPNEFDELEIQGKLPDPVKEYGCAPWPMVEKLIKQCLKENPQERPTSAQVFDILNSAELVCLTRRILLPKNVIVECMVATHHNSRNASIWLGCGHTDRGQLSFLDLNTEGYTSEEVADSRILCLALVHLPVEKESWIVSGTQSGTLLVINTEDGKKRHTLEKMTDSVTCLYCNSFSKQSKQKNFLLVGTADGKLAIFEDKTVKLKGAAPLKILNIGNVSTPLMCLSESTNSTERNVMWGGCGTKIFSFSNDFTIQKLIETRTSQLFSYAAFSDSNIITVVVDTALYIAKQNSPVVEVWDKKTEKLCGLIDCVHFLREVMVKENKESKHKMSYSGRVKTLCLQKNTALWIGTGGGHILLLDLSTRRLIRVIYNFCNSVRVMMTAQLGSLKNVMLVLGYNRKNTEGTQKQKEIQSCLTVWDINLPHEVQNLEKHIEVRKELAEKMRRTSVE

| IC50 (ULK1 kinase [1]) [nM] | IC50 (LRRK2 kinase) [nM] | SMILES | other results |
| --- | --- | --- | --- |
| 100 to 500 | 1 to 100 | Cc1nn(C(C)(C)C#N)cc1Nc1ncc(C(F)(F)F)c(NCCCN2CCCOCC2=O)n1 [Example 172, 2-methyl-2-(3-methyl-4-((4-((3-(3-oxo-1,4-oxazepan-4-yl)propyl)amino)-5-(trifluoromethyl)pyrimidin-2-yl)amino)-1H-pyrazol-1-yl)propanenitrile] |  |
| > 500 | > 600 | Cc1nn(CCN(C)C)cc1Nc1ncc(Cl)c(NCCCN2CCCOCC2=O)n1 [Example 123] |  |
| > 500 | > 600 | Cc1cn(C2CCN(C)CC2)nc1Nc1ncc(C(F)(F)F)c(NCCCN2CCCOC2=O)n1 [Example 126] |  |
| 100 to 500 | 100 to 300 | Cc1nn(CCN(C)C)cc1Nc1ncc(Br)c(NCCCN2CCCOCC2=O)n1 [Example 122] |  |
| 100 to 500 |  | Cc1nn(C2CCN(C(C)C)CC2)cc1Nc1ncc(Cl)c(NCCCN2CCOCCC2=O)n1 [Example 143] |  |
| 1 to 25 |  | CCc1nn(C2CCN(C)CC2)cc1Nc1ncc(C(F)(F)F)c(NCCCN2CCOCCC2=O)n1 [Example 136] |  |
| 100 to 500 |  | Cc1nn(CCCN2CCOCC2)cc1Nc1ncc(Br)c(NCCCN2CCCOCC2=O)n1 [Example 121] |  |
| > 500 | > 600 | Cc1nn(CCN(C)C)cc1Nc1ncc(C2CC2)c(NCCCN2CCOCCC2=O)n1 [Example 140] |  |
| 100 to 500 | > 600 | Cc1nn(C2CCN(C)CC2)cc1Nc1ncc(C2CC2)c(NCCCN2CCOCCC2=O)n1 [Example 141] |  |
| 100 to 500 |  | Cc1nn(CCN(C)C)cc1Nc1ncc(C(F)(F)F)c(NCCCN2CCOCCC2=O)n1 [Example 137] |  |
| > 500 | > 600 | Cc1nn(CCCN2CCOCC2)cc1Nc1ncc(C2CC2)c(NCCCN2CCOCCC2=O)n1 [Example 139] |  |
| 100 to 500 | 1 to 100 | Cc1nn(C(C)(C)C(N)=O)cc1Nc1ncc(C(F)(F)F)c(NCCCN2CCOCCC2=O)n1 [Example 145] |  |
| > 500 |  | CCN1CCC(n2cc(Nc3ncc(C4CC4)c(NCCCN4CCOCCC4=O)n3)c(C)n2)CC1 [Example 142] |  |
| 100 to 500 |  | Cc1nn(CCN(C)C)cc1Nc1ncc(Br)c(NCCCN2CCOCCC2=O)n1 [Example 144] |  |
| 100 to 500 |  | CCN(CC)CCn1cc(Nc2ncc(C(F)(F)F)c(NCCCN3CCOCCC3=O)n2)c(C)n1 [Example 146] |  |
| > 500 | 1 to 100 | Cc1nn(C(C)(C)C(N)=O)cc1Nc1ncc(C(F)(F)F)c(NCCCN2CCCOCC2=O)n1 [Example 125, 2-methyl-2-(3-methyl-4-((4-((3-(3-oxo-1,4-oxazepan-4-yl)propyl)amino)-5-(trifluoromethyl)pyrimidin-2-yl)amino)-1H-pyrazol-1-yl)propanamide] |  |

Continued, molecule first:

| SMILES | IC50 (ULK1 kinase [1]) [nM] | IC50 (LRRK2 kinase) [nM] | other results |
| --- | --- | --- | --- |
| CCc1nn(C2CCN(C)CC2)cc1Nc1ncc(C2CC2)c(NCCCN2CCCOCC2=O)n1 [Example 119] | > 500 |  |  |
| Cc1nn(CCCN2CCOCC2)cc1Nc1ncc(Cl)c(NCCCN2CCCOCC2=O)n1 [Example 120] | > 500 |  |  |
| Cc1nn([C@@H]2CCN(C)C2)cc1Nc1ncc(Cl)c(NCCCN2CCCOCC2=O)n1 [Example 113] | 100 to 500 | 100 to 300 |  |
| Cc1nn(C2CCN(C(C)C)CC2)cc1Nc1ncc(C2CC2)c(NCCCN2CCOCC2=O)n1 [Example 75] | > 500 |  |  |
| Cc1nn(C(C)(C)C(N)=O)cc1Nc1ncc(C(F)(F)F)c(NCCCN2CCCCC2=O)n1 [Example 67] | > 500 | 1 to 100 |  |
| Cc1nn([C@@H]2CCN(C)C2)cc1Nc1ncc(C(F)(F)F)c(NCCCN2CCOCCC2=O)n1 [Example 133] |  |  | IC50 (ULK1 kinase [2]): 1 to 25 nM; IC50 [3]: 10 to 100 nM; IC50 [4]: 10 to 100 nM |
| Cc1nn(CCN(C)C)cc1Nc1ncc(C(F)(F)F)c(NCCCN2CCCOCC2=O)n1 [Example 117] | 25 to 100 |  |  |
| CCc1nn(C2CCN(C(C)C)CC2)cc1Nc1ncc(C2CC2)c(NCCCN2CCOCC2=O)n1 [Example 76] | > 500 | > 600 |  |
| CCc1nn(C2CCN(C(C)C)CC2)cc1Nc1ncc(Cl)c(NCCCN2CCCOC2=O)n1 [Example 73] | 100 to 500 | 300 to 600 |  |
| Cc1nn(CCCN2CCOCC2)cc1Nc1ncc(C2CC2)c(NCCCN2CCCOCC2=O)n1 [Example 115] | > 500 | > 600 |  |
| Cc1nn(C2CCN(C(C)C)CC2)cc1Nc1ncc(C2CC2)c(NCCCN2CCCOCC2=O)n1 [Example 114] | > 500 | > 600 |  |
| Cc1nn(CCN(C)C)cc1Nc1ncc(C2CC2)c(NCCCN2CCCOCC2=O)n1 [Example 116] | > 500 | > 600 |  |
